According to patent US10874743B2, “IRAK degraders and uses thereof” (Kymera Therapeutics, Inc., priority 2017, dated 2020):

Target: T1, IRAK4 (Homo sapiens, UniProt Q9NWZ3)
T1 sequence (Q9NWZ3 1-460): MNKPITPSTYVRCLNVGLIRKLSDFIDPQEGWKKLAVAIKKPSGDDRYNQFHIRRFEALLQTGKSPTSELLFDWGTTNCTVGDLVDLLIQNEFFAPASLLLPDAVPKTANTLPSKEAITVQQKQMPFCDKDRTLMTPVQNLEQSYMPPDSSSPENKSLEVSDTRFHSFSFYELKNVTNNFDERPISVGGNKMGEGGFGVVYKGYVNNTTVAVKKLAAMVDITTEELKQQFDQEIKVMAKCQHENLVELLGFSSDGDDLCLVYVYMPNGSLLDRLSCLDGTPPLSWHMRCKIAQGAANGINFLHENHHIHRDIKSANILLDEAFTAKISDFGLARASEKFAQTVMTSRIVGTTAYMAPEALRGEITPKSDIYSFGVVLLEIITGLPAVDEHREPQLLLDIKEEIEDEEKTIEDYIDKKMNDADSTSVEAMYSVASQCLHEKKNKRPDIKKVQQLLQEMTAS
Experiment: OCI-LY-10 degradation assay (western blot, % IRAK4 degraded after 4 hours)
Format: cell-based
Parameters: endogenous in cells; host or cells: OCI-LY10
Conditions: OCI-LY10 cells, 4 hours; for OCI-LY10 % IRAK4 Degradation (0.01 uM): 0.01 uM compound; for OCI-LY10 % IRAK4 Degradation (0.1 uM): 0.1 uM compound; for OCI-LY10 % IRAK4 Degradation (1 uM): 1 uM compound
Summary of the method: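 OCI-LY10 cells (RPMI-1640, 20% FBS, 55 μM 2-ME) treated with compound at 0.003-10 μM final for 4 h at 37° C, then lysed in RIPA buffer. IRAK4 level read by fluorescent western blot (20-25 μg protein) and binned as % degraded: A >50%, B >20-50%, C <20%.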

OCI-LY10 % IRAK4 Degradation (0.01 uM)	OCI-LY10 % IRAK4 Degradation (0.1 uM)	OCI-LY10 % IRAK4 Degradation (1 uM)	SMILES
C (<20% degradation)	C (<20% degradation)	C (<20% degradation)	CN(CCNCCCc1cccc2c1C(=O)N(C1CCC(=O)NC1=O)C2=O)C(=O)c1ccc(-n2cc(NC(=O)c3coc(-c4ccncc4)n3)c(C(F)F)n2)cc1 (stereo not drawn) [I-364]
C (<20% degradation)	C (<20% degradation)	C (<20% degradation)	CN(CCCc1cccc2c1C(=O)N(C1CCC(=O)NC1=O)C2=O)Cc1ccc(-n2cc(NC(=O)c3coc(-c4ccncc4)n3)c(C(F)F)n2)cc1 (stereo not drawn) [I-365]
C (<20% degradation)	B (>20-50% degradation)	B (>20-50% degradation)	CN(CCCc1ccc2c(c1)C(=O)N(C1CCC(=O)NC1=O)C2=O)Cc1ccc(-n2cc(NC(=O)c3coc(-c4ccncc4)n3)c(C(N)=O)n2)cc1 (stereo not drawn) [I-370]
C (<20% degradation)	C (<20% degradation)	C (<20% degradation)	NC(=O)c1nn(-c2ccc(CNCCCc3ccc4c(c3)C(=O)N(C3CCC(=O)NC3=O)C4=O)cc2)cc1NC(=O)c1coc(-c2ccncc2)n1 (stereo not drawn) [I-372]
B (>20-50% degradation)	B (>20-50% degradation)	B (>20-50% degradation)	O=C1CCC(N2C(=O)c3ccc(CCCNCc4ccc(-n5cc(NC(=O)c6coc(-c7ccnc(NCC(F)(F)F)c7)n6)c(C(F)F)n5)cc4)cc3C2=O)C(=O)N1 (stereo not drawn) [I-375]
C (<20% degradation)	C (<20% degradation)	B (>20-50% degradation)	CN(CCOCCCc1ccc2c(c1)C(=O)N(C1CCC(=O)NC1=O)C2=O)Cc1ccc(-n2cc(NC(=O)c3coc(-c4ccncc4)n3)c(C(F)F)n2)cc1 (stereo not drawn) [I-377]
C (<20% degradation)	C (<20% degradation)	A (>50% degradation)	CN(CCNCCCc1ccc2c(c1)C(=O)N(C1CCC(=O)NC1=O)C2=O)C(=O)c1ccc(-n2cc(NC(=O)c3coc(-c4ccncc4)n3)c(C(F)F)n2)cc1 (stereo not drawn) [I-378]

Continued, compound first:

SMILES	OCI-LY10 % IRAK4 Degradation (0.01 uM)	OCI-LY10 % IRAK4 Degradation (0.1 uM)	OCI-LY10 % IRAK4 Degradation (1 uM)
CN(CCOCCCc1cccc2c1C(=O)N(C1CCC(=O)NC1=O)C2=O)Cc1ccc(-n2cc(NC(=O)c3coc(-c4ccncc4)n3)c(C(F)F)n2)cc1 (stereo not drawn) [I-363]	C (<20% degradation)	C (<20% degradation)	C (<20% degradation)
O=C1CCC(N2C(=O)c3cccc(CCCOCCNCc4ccc(-n5cc(NC(=O)c6coc(-c7ccnc(NCC8CC8)c7)n6)c(C(F)F)n5)cc4)c3C2=O)C(=O)N1 (stereo not drawn) [I-367]	B (>20-50% degradation)	B (>20-50% degradation)	A (>50% degradation)
CN(CCCc1ccc2c(c1)C(=O)N(C1CCC(=O)NC1=O)C2=O)Cc1ccc(-n2cc(NC(=O)c3coc(-c4ccnc(NCC5CC5)c4)n3)c(C(F)F)n2)cc1 (stereo not drawn) [I-369]	B (>20-50% degradation)	B (>20-50% degradation)	B (>20-50% degradation)
CN(CCCc1ccc2c(c1)C(=O)N(C1CCC(=O)NC1=O)C2=O)Cc1ccc(-n2cc(NC(=O)c3coc(-c4ccnc(NCC(F)(F)F)c4)n3)c(C(F)F)n2)cc1 (stereo not drawn) [I-374]	C (<20% degradation)	B (>20-50% degradation)	B (>20-50% degradation)
CN(CCOCCCc1ccc2c(c1)C(=O)N(C1CCC(=O)NC1=O)C2=O)Cc1ccc(-n2cc(NC(=O)c3coc(-c4ccnc(NCC5CC5)c4)n3)c(C(F)F)n2)cc1 (stereo not drawn) [I-376]	B (>20-50% degradation)	A (>50% degradation)	A (>50% degradation)
